Source: ChEMBL document CHEMBL1201862, “PubChem BioAssay data set” (2004)
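Step 1: Grow cells in 96-well plates. Step 2: Expose to compound for 48 hours at 5 concentrations. Step 3: Interpolate endpoints linearly; if unreached, use highest concentration. GI50: concentration for 50% inhibition of growth.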 Calls of active or inactive are those of the source. Cut-off read from the data, not from the text of the source: active = GI50 up to about 1.1 µM and inactive = higher.

Tests used:
Experiment in all cases: NCI anticancer screen, dose series, 48 h
786-0 = test system: 786-0
A498 = test system: A498
HCT-116 = test system: HCT-116
HT-29 = test system: HT-29
IGROV-1 = test system: IGROV-1
KM12 = test system: KM12
NCI-H226 = test system: NCI-H226
NCI-H23 = test system: NCI-H23
OVCAR-5 = test system: OVCAR-5
SF-295 = test system: SF-295
SK-MEL-2 = test system: SK-MEL-2
SK-MEL-5 = test system: SK-MEL-5
SK-OV-3 = test system: SK-OV-3
SN12C = test system: SN12C
SNB-19 = test system: SNB-19
SR = test system: SR
TK-10 = test system: TK-10
K562 = test system: K562

Measured: GI50

O=C1/C(=C/c2ccccc2)CCCC/C1=C\c1ccccc1
inactive: 786-0 65.8 µM | A498 > 100 µM | HCT-116 40.6 µM | HT-29 16.2 µM | IGROV-1 > 100 µM | KM12 41.2 µM | NCI-H226 39.4 µM | NCI-H23 45.1 µM | OVCAR-5 29 µM | SF-295 72.3 µM | SK-MEL-2 47.9 µM | SK-MEL-5 24.1 µM | SK-OV-3 > 100 µM | SN12C > 100 µM | SNB-19 > 100 µM | SR 12.8 µM | TK-10 > 100 µM

O=C1c2ccccc2C(=O)c2sc(Nc3ccc(Cl)cc3)nc21
inactive: 786-0 1.6 µM | A498 16.1 µM | HCT-116 1.64 µM | HT-29 4.15 µM | IGROV-1 2.44 µM | K562 1.96 µM | KM12 2.04 µM | NCI-H226 7.53 µM | NCI-H23 1.55 µM | OVCAR-5 5.13 µM | SF-295 5.53 µM | SK-MEL-2 3.67 µM | SK-MEL-5 1.8 µM | SK-OV-3 18.9 µM | SN12C 1.85 µM | SNB-19 5.73 µM | SR 1.86 µM | TK-10 5.89 µM

Cc1ccccc1NC(=O)C(=O)CC(=O)c1sc(-n2nc(-c3ccccc3)cc2-c2ccccc2)nc1C
inactive: 786-0 > 100 µM | A498 > 100 µM | HCT-116 > 100 µM | HT-29 > 100 µM | IGROV-1 > 100 µM | K562 > 100 µM | KM12 > 100 µM | NCI-H226 > 100 µM | NCI-H23 > 100 µM | OVCAR-5 > 100 µM | SF-295 > 100 µM | SK-MEL-2 > 100 µM | SK-OV-3 > 100 µM | SN12C > 100 µM | SNB-19 > 100 µM | SR > 100 µM | TK-10 > 100 µM

COC1C=COC2(C)Oc3c(C)c(O)c4c(O)c(c(/C=N/N5CCN(N)CC5)c(O)c4c3C2=O)NC(=O)C(C)=CC=CC(C)C(O)C(C)C(O)C(C)C(OC(C)=O)C1C (stereo unspecified)
inactive: 786-0 > 100 µM | A498 > 100 µM | HCT-116 30.7 µM | HT-29 38.4 µM | IGROV-1 > 100 µM | K562 44.4 µM | KM12 68.4 µM | NCI-H226 > 100 µM | NCI-H23 31.9 µM | OVCAR-5 > 100 µM | SF-295 84.3 µM | SK-MEL-2 > 100 µM | SK-MEL-5 84.3 µM | SK-OV-3 > 100 µM | SN12C > 100 µM | SNB-19 > 100 µM | SR 34.1 µM | TK-10 > 100 µM

OCC(O)COc1c(Cl)cc(Cl)cc1Cl (stereo unspecified)
inactive: 786-0 > 47.6 µM | A498 > 100 µM | HCT-116 > 74.3 µM | HT-29 > 100 µM | IGROV-1 > 100 µM | K562 > 46.6 µM | KM12 > 100 µM | NCI-H226 > 100 µM | NCI-H23 > 57.4 µM | OVCAR-5 > 100 µM | SF-295 > 100 µM | SK-MEL-2 > 100 µM | SK-MEL-5 > 100 µM | SK-OV-3 > 100 µM | SN12C > 100 µM | SNB-19 > 100 µM | SR 61.7 µM | TK-10 > 100 µM

CC1(C)COC(c2ccc(C(F)(F)F)cc2C(O)c2ccc3ccccc3c2)=N1 (stereo unspecified)
inactive: 786-0 > 10 µM | A498 > 10 µM | HCT-116 > 10 µM | HT-29 > 10 µM | IGROV-1 > 10 µM | K562 > 10 µM | KM12 > 10 µM | NCI-H226 51.3 µM | NCI-H23 28.9 µM | OVCAR-5 > 10 µM | SF-295 20.7 µM | SK-MEL-2 > 10 µM | SK-MEL-5 > 10 µM | SK-OV-3 > 10 µM | SN12C > 10 µM | SNB-19 57.8 µM | SR > 10 µM | TK-10 > 10 µM
